Results as given in patent US20110082157A1, “Piperidinylamino-Thieno [2,3-D] Pyrimidine Compounds” (priority 2004, published 2011).
Structures can show the parent of a compound that is named as a salt.

What was measured:
hERG = hERG (Homo sapiens, UniProt Q12809); experiment: hERG % inhibition at 1 uM
5HT2B = 5HT2B (Homo sapiens, UniProt P41595); experiment: 5HT2B binding (Ki of Biological Data Table)
HLM T1/2 = conditions: human, liver microsomes

hERG, sequence (Q12809 whole entry): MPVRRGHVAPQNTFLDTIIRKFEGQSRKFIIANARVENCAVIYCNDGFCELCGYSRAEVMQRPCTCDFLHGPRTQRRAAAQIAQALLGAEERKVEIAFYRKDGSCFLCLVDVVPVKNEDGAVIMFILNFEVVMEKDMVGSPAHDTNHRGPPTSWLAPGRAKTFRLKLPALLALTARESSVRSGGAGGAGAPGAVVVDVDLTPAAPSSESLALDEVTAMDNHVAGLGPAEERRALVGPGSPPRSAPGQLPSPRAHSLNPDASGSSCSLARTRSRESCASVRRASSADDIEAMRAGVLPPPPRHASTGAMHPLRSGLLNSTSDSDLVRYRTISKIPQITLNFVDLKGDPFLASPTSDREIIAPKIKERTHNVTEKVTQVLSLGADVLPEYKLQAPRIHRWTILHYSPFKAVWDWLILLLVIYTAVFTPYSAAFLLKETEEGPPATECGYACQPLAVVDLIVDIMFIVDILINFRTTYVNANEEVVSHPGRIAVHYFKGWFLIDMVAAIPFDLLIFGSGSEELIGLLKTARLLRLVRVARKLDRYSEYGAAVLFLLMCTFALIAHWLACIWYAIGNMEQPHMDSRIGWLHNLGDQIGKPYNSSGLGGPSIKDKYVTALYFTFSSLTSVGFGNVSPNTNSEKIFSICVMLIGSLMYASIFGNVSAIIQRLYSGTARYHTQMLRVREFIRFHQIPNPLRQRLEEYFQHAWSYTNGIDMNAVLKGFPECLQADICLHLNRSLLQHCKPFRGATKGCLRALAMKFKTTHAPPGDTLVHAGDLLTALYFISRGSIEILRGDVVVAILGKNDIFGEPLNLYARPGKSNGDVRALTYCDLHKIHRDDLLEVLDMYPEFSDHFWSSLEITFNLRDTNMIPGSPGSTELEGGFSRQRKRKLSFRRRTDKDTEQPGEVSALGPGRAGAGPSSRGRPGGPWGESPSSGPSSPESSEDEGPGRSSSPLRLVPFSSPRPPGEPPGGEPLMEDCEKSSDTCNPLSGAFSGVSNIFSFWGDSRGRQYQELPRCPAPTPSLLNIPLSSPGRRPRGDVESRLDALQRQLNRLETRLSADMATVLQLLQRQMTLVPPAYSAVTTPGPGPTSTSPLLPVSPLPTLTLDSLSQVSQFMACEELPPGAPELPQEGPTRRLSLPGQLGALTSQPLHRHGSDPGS
5HT2B, sequence (P41595 whole entry, species assumed): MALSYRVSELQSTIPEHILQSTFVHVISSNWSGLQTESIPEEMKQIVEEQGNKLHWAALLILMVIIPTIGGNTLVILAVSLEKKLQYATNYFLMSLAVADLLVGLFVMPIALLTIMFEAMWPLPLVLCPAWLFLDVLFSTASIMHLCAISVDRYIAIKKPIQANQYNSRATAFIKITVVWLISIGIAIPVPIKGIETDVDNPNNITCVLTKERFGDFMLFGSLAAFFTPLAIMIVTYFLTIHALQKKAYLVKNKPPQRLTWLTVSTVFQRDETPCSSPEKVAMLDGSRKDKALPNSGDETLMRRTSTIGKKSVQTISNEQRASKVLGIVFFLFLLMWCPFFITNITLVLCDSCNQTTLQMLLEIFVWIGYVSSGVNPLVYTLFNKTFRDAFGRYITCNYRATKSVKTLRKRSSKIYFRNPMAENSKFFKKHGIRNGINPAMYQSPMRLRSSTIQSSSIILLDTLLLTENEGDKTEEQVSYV

SMILES | half-life (HLM T1/2) | also measured
Fc1ccccc1CN1CCC(Nc2ncnc3sc4c(c23)CCCC4)CC1 [Example B4, N-(1-(2-fluorobenzyl)piperidin-4-yl)5,6,7,8-tetrahydro-benzo[4,5]thieno[2,3-d]pyrimidin-4-amine] | – | hERG (% Inhibition at 1 uM) (hERG): hERG (% Inhibition at 1 uM): 58.5
CN1CCC(N(C)c2ncnc3sc4c(c23)CCCC4)CC1 [Example B5, N-methyl-N-(1-methylpiperidin-4-yl)5,6,7,8-tetrahydro-benzo[4,5] thieno[2,3-d]pyrimidin-4-amine] | – | % at 10 nM (5HT2B): -2%; % at 100 nM (5HT2B): 11%; % at 1000 nM (5HT2B): 67%
c1ccc(CN2CCC(Nc3ncnc4scc(-c5ccccc5)c34)CC2)cc1 [Example B6, N-(1-benzylpiperidin-4-yl)-5-phenylthieno [2,3-d]pyrimidin-4-amine] | < 15 min | % at 10 nM (5HT2B): 38%; % at 100 nM (5HT2B): 91%; % at 1000 nM (5HT2B): 101%
Oc1cc(C(F)(F)F)cnc1N1CCC(Nc2ncnc3scc(-c4ccccc4)c23)CC1 [Example B7, 2-(4-(5-phenylthieno [2,3-d]pyrimidin-4-ylamino)piperidin-1-yl)-5-(trifluoromethyl) pyridin-3-ol] | – | % at 10 nM (5HT2B): 3%; % at 100 nM (5HT2B): 4%; % at 1000 nM (5HT2B): 30%
c1ccc(CN2CCC(Nc3ncnc4sccc34)CC2)cc1 [Example B8, N-(1-benzylpiperidin-4-yl)thieno [2,3-d]pyrimidin-4-amine] | – | % at 10 nM (5HT2B): 13%; % at 100 nM (5HT2B): 62%; % at 1000 nM (5HT2B): 96%
Cc1csc2ncnc(NC3CCN(Cc4ccccc4)CC3)c12 [Example B9, N-(1-benzylpiperidin-4-yl)-5-methylthieno [2,3-d]pyrimidin-4-amine] | – | % at 10 nM (5HT2B): 15%; % at 100 nM (5HT2B): 62%; % at 1000 nM (5HT2B): 97%
CC(c1cccc(F)c1)N1CCC(Nc2ncnc3sc4c(c23)CCCC4)CC1 (centres unmarked) [Example B10, N-(1-(1-(3-fluorophenyl)ethyl)piperidin-4-yl)-(5,6,7,8-tetrahydro-benzo[4,5]thieno[2,3-d]pyrimidin-4-amine, dihydrochloride] | < 15 min | –
Cc1sc2ncnc(NC3CCN(C(C)c4cccc(F)c4)CC3)c2c1C (centres unmarked) [Example B13, N-(1-(1-(3-fluorophenyl)ethyl)piperidin-4-yl)-5,6-dimethylthieno[2,3-d] pyrimidin-4-amine, dihydrochloride] | < 15 min | –
CC(c1cccc(F)c1)N1CCC(C)(Nc2ncnc3sc4c(c23)CCCC4)CC1 (centres unmarked) [Example B15, N-(1-(1-(3-fluorophenyl)ethyl)-4-methylpiperidin-4-yl) 5,6,7,8-tetrahydro-benzo[4,5]thieno[2,3-d]pyrimidin-4-amine, dihydrochloride] | < 15 min | –
CC(C)CC(c1cccc(F)c1)N1CCC(Nc2ncnc3sc4c(c23)CCCC4)CC1 (centres unmarked) [Example B16, N-(1-(1-(3-fluorophenyl)-3-methylbutyl)piperidin-4-yl)5,6,7,8-tetrahydro-benzo[4,5]thieno[2,3-d] pyrimidin-4-amine, dihydrochloride] | < 15 min | –
CC(C)Cc1cc2c(NC3CCN(C(C)c4c(F)cc(F)cc4F)CC3)ncnc2s1 (centres unmarked) [Example B19, N-(1-(1-(2,4,6-trifluorophenyl)ethyl)piperidin-4-yl)-6-isobutylthieno[2,3-d]pyrimidin-4-amine, dihydrochloride] | < 15 min | hERG (% Inhibition at 1 uM) (hERG): hERG (% Inhibition at 1 uM): 50.2
CC(C)Cc1cc2c(NC3CCN(C(C)c4c(F)cccc4F)CC3)ncnc2s1 (centres unmarked) [Example B20, N-(1-(1-(2,6-difluorophenyl)ethyl)piperidin-4-yl)-6-isobutylthieno[2,3-d] pyrimidin-4-amine, dihydrochloride] | < 15 min | hERG (% Inhibition at 1 uM) (hERG): hERG (% Inhibition at 1 uM): 73.4
CC(c1c(F)cccc1F)N1CCC(Nc2ncnc3sc4c(c23)CCCC4)CC1 (centres unmarked) [Example B21, N-(1-(1-(2,6-difluorophenyl)ethyl)piperidin-4-yl)5,6,7,8-tetrahydro-benzo[4,5]thieno[2,3-d]pyrimidin-4-amine, dihydrochloride] | < 15 min | –
CC(C#N)(c1cccc(F)c1)N1CCC(Nc2ncnc3sc4c(c23)CCCC4)CC1 (centres unmarked) [Example B23, 2-(3-fluorophenyl)-2-(4-(5,6,7,8-tetrahydro-benzo[4,5]thieno[2,3-d]pyrimidin-4-ylamino)piperidin-1-yl) propanenitrile, dihydrochloride] | < 15 min | –
CC(C)(c1cccc(F)c1)N1CCC(Nc2ncnc3sc4c(c23)CCCC4)CC1 [Example B24, N-(1-(2-(3-fluorophenyl)propan-2-yl)piperidin-4-yl)5,6,7,8-tetrahydro-benzo[4,5]thieno[2,3-d]pyrimidin-4-amine, dihydrochloride] | < 15 min | –
Fc1cccc(CNCCCNc2ncnc3sc4c(c23)CCCC4)c1 [Example B25, N-(3-(3-fluorobenzylamino)propyl)5,6,7,8-tetrahydro-benzo[4,5]thieno[2,3-d]pyrimidin-4-amine, dihydrochloride] | < 15 min | –
CC(NCCCNc1ncnc2sc3c(c12)CCCC3)c1cccc(F)c1 (centres unmarked) [Example B26, N-(3-(1-(3-fluorophenyl)ethylamino)propyl) 5,6,7,8-tetrahydro-benzo[4,5]thieno[2,3-d] pyrimidin-4-amine, dihydrochloride] | < 15 min | –

SMILES | half-life (HLM T1/2) | also measured
CC(C)Cc1cc2c(NCCCNC(C)c3cccc(F)c3)ncnc2s1 (centres unmarked) [Example B27, N-(3-(1-(3-fluorophenyl)ethylamino)propyl)-6-isobutylthieno[2,3-d]pyrimidin-4-amine, dihydrochloride] | < 15 min | –
Fc1cccc(C(N2CCC(Nc3ncnc4sc5c(c34)CCCC5)CC2)C(F)(F)F)c1 (centres unmarked) [Example B28, N-(1-(2,2,2-trifluoro-1-(3-fluorophenyl)ethyl)piperidin-4-yl)5,6,7,8-tetrahydro-benzo[4,5]thieno[2,3-d]pyrimidin-4-amine, dihydrochloride] | 11 min | –
CC(C)Cc1cc2c(N3CCC(NCc4cc(F)cc(F)c4)CC3)ncnc2s1 [Example B29, N-(3,5-difluorobenzyl)-1-(6-isobutylthieno[2,3-d]pyrimidin-4-yl) piperidin-4-amine, dihydrochloride] | 18 min | –
Fc1cc(F)cc(CN2CCC(Nc3ncnc4sc(Cl)cc34)CC2)c1 [Example B33, N-(1-(3,5-difluorobenzyl)piperidin-4-yl)-6-chlorothieno[2,3-d]pyrimidin-4-amine, dihydrochloride] | 13 min | hERG (% Inhibition at 1 uM) (hERG): hERG (% Inhibition at 1 uM): 22.8
Cc1sc2ncnc(NC3CCN(CC4CCCCC4)CC3)c2c1C [Example B35, N-(1-(cyclohexylmethyl)piperidin-4-yl)-5,6-dimethylthieno[2,3-d]pyrimidin-4-amine, dihydrochloride] | < 15 min | hERG (% Inhibition at 1 uM) (hERG): hERG (% Inhibition at 1 uM): 91.7
Cc1sc2ncnc(NC3CCN(Cc4ccccc4C#N)CC3)c2c1C [Example B36, 2-((4-(5,6-dimethylthieno[2,3-d]pyrimidin-4-ylamino)piperidin-1-yl)methyl)benzonitrile, dihydrochloride] | – | hERG (% Inhibition at 1 uM) (hERG): hERG (% Inhibition at 1 uM): 21.7
Cc1c(Cl)sc2ncnc(NC3CCN(Cc4cccc(F)c4)CC3)c12 [Example B37, N-(1-(3-fluorobenzyl)piperidin-4-yl)-6-chloro-5-methylthieno[2,3-d]pyrimidin-4-amine, dihydrochloride] | 11 min | –
Cc1c(Cl)sc2ncnc(NC3CCN(Cc4ccccc4C#N)CC3)c12 [Example B39, 2-((4-(6-chloro-5-methylthieno[2,3-d]pyrimidin-4-ylamino)piperidin-1-yl)methyl) benzonitrile, dihydrochloride] | < 15 min | –
COc1ccccc1CN1CCC(Nc2ncnc3sc(Cl)c(C)c23)CC1 [Example B40, N-(1-(2-methoxybenzyl)piperidin-4-yl)-6-chloro-5-methylthieno[2,3-d] pyrimidin-4-amine, dihydrochloride] | < 15 min | –
Fc1cccc(CN2CCC(Nc3ncnc4sc(Cl)cc34)CC2)c1 [Example B41, N-(1-(3-fluorobenzyl)piperidin-4-yl)-6-chlorothieno[2,3-d]pyrimidin-4-amine, dihydrochloride] | 10 min | –
NC(=O)c1cccc(CN2CCC(Nc3ncnc4sc(Cl)cc34)CC2)c1 [Example B45, 3-((4-(6-chlorothieno [2,3-d]pyrimidin-4-ylamino)piperidin-1-yl)methyl) benzamide, monomaleate] | 86 min | –
Fc1ccccc1CN1CCC(Nc2ncnc3sc(Cl)cc23)CC1 [Example B46, N-(1-(2-fluorobenzyl)piperidin-4-yl)-6-chlorothieno[2,3-d]pyrimidin-4-amine, monomaleate] | < 15 min | hERG (% Inhibition at 1 uM) (hERG): hERG (% Inhibition at 1 uM): 39.5
Clc1cc2c(NC3CCN(Cc4cncnc4)CC3)ncnc2s1 [Example B49, 6-chloro-N-(1-((pyrimidin-5-yl)methyl)piperidin-4-yl)thieno[2,3-d] pyrimidin-4-amine, monomaleate] | 60 min | –
N#Cc1ccc(F)c(CN2CCC(Nc3ncnc4sc(Cl)cc34)CC2)c1 [Example B51, 3-((4-(6-chlorothieno [2,3-d]pyrimidin-4-ylamino)piperidin-1-yl)methyl)-4-fluorobenzonitrile, monomaleate] | 10 min | –
Clc1cccc(CN2CCC(Nc3ncnc4sc(Cl)cc34)CC2)c1 [Example B52, N-(1-(3-chlorobenzyl)piperidin-4-yl)-6-chlorothieno[2,3-d]pyrimidin-4-amine, monomaleate] | 11 min | –
CC(C)c1c(Cl)sc2ncnc(NC3CCN(Cc4cccc(F)c4)CC3)c12 [Example B53, N-(1-(3-fluorobenzyl)piperidin-4-yl)-6-chloro-5-isopropylthieno[2,3-d]pyrimidin-4-amine, monomaleate] | 8 min | –
FC(F)(F)c1cccc(CN2CCC(Nc3ncnc4sc(Cl)cc34)CC2)c1 [Example B54, N-(1-(3-(trifluoromethyl)benzyl)piperidin-4-yl)-6-chlorothieno[2,3-d]pyrimidin-4-amine, monomaleate] | 16 min | –
